Measurements from patent US8952024B2, “Herbicidal pyrimidone derivatives” (E I du Pont de Nemours and Company, priority 2009, dated 2015).

How the values were obtained:
Experiment in all cases: Test D pre-/postemergence plant response
Type in all cases: in vivo
[1] = tested on: Russian thistle (Salsola kali); conditions: scale 0 to 100
Excerpt: (§1) Seeds of plant species selected from bermudagrass (Cynodon dactylon), Surinam grass (Brachiaria decumbens), large crabgrass (Digitaria sanguinalis), green foxtail (Setaria viridis), goosegrass (Eleusine indica), johnsongrass (Sorghum halepense), kochia (Kochia scoparia), morningglory (pitted morningglory, Ipomoea lacunosa), nutsedge (purple nutsedge, Cyperus rotundus), ragweed (common ragweed, Ambrosia elatior), black mustard (Brassica nigra), guineagrass (Panicum maximum), dallisgrass (Paspalum dilatatum), barnyardgrass (Echinochloa crus-galli), sandbur (southern sandbur, Cenchrus echinatus), sowthistle (common sowthistle, Sonchus oleraceous), prickly sida (Sida spinosa), Italian ryegrass (Lolium multiflorum), purslane (common purslane, Portulaca oleracea), signalgrass (broadleaf signalgrass, Brachiaria platyphylla), groundsel (common groundsel, Senecio vulgaris), chickweed (common chickweed, Stellaria media), dayflower (Virginia (VA) dayflower, Commelina virginica), bluegrass (annual bluegrass, Poa annua), naked crabgrass (Digitaria nuda), itchgrass (Rottboellia cochinchinensis), quackgrass (Elytrigia repens), field bindweed (Convolvulus arvensis), spanishneedles (Bidens bipinnata), mallow (common mallow, Malva sylvestris) and Russian thistle (Salsola kali), were planted into a blend of loam soil and sand and treated preemergence with test chemicals formulated in a non-phytotoxic solvent mixture which included a surfactant. At the same time, plants from these weed species were treated with postemergence applications of the test chemicals formulated in the same manner. Plants ranged in height from 2 to 18 cm (1- to 4-leaf stage) for postemergence treatments.
(§2) Treated plants and controls were maintained in a greenhouse for 14 to 21 days, after which time all species were visually evaluated and compared to controls. Plant response ratings, summarized in Table D, are based on a scale of 0 to 100 where 0 is no effect and 100 is complete control. A dash (-) response means no test result.

[2] = tested on: barnyardgrass (Echinochloa crus-galli)
Excerpt: as §1, §2

[3] = tested on: bermudagrass (Cynodon dactylon)
Excerpt: as §1, §2

[4] = tested on: black mustard (Brassica nigra)
Excerpt: as §1, §2

[5] = tested on: dallisgrass (Paspalum dilatatum)
Excerpt: as §1, §2

[6] = tested on: dayflower (Virginia (VA) dayflower, Commelina virginica)
Excerpt: as §1, §2

[7] = tested on: green foxtail (Setaria viridis)
Excerpt: as §1, §2

[8] = tested on: guineagrass (Panicum maximum)
Excerpt: as §1, §2

[9] = tested on: itchgrass (Rottboellia cochinchinensis)
Excerpt: as §1, §2

[10] = tested on: mallow (common mallow, Malva sylvestris)
Excerpt: as §1, §2

[11] = tested on: prickly sida (Sida spinosa)
Excerpt: as §1, §2

[12] = tested on: quackgrass (Elytrigia repens)
Excerpt: as §1, §2

[13] = tested on: ragweed (common ragweed, Ambrosia elatior)
Excerpt: as §1, §2

[14] = tested on: sandbur (southern sandbur, Cenchrus echinatus)
Excerpt: as §1, §2

[15] = tested on: signalgrass (broadleaf signalgrass, Brachiaria platyphylla)
Excerpt: as §1, §2

[16] = tested on: sowthistle (common sowthistle, Sonchus oleraceous)
Excerpt: as §1, §2

[17] = Postemergence, 16 g ai/ha, scale 0 to 100
[18] = Postemergence, 31 g ai/ha, scale 0 to 100 (0 no effect, 100 complete control)
[19] = Postemergence, 125 g ai/ha, scale 0 to 100 (0 no effect, 100 complete control)
[20] = Postemergence, 62 g ai/ha, scale 0 to 100 (0 no effect, 100 complete control)
[21] = Preemergence, 16 g ai/ha, scale 0 to 100, 0 no effect, 100 complete control
[22] = Preemergence, 31 g ai/ha, scale 0 to 100 (0 no effect, 100 complete control)
[23] = Preemergence, 62 g ai/ha, scale 0 to 100
[24] = Preemergence, 125 g ai/ha, scale 0 to 100
[25] = Postemergence, 31 g ai/ha, scale 0 to 100

Cc1ccc(F)c(-n2c(-c3ccccc3)ncc(C(=O)C3=C(O)CCCC3=O)c2=O)c1 [Compound 51]
Plant response rating, Russian Thistle ([1]; Postemergence, 16 g ai/ha): 0 | Plant response rating, Russian Thistle ([1]; Preemergence, 125 g ai/ha): 75 | Plant response rating, Barnyardgrass [2, 17]: 65 | Plant response rating, Barnyardgrass [2, 18]: 70 | Plant response rating, Barnyardgrass [2, 19]: 70 | Plant response rating, Barnyardgrass [2, 20]: 70 | Plant response rating, Barnyardgrass [2, 21]: 0 | Plant response rating, Barnyardgrass [2, 22]: 0 | Plant response rating, Barnyardgrass [2, 23]: 0 | Plant response rating, Barnyardgrass [2, 24]: 10 | Plant response rating, Bermudagrass [3, 17]: 65 | Plant response rating, Bermudagrass [3, 18]: 75 | Plant response rating, Bermudagrass [3, 19]: 85 | Plant response rating, Bermudagrass [3, 20]: 80 | Plant response rating, Bermudagrass [3, 21]: 0 | Plant response rating, Bermudagrass [3, 22]: 0 | Plant response rating, Bermudagrass [3, 23]: 0 | Plant response rating, Bermudagrass [3, 24]: 30 | Plant response rating, Black Mustard [4, 17]: 70 | Plant response rating, Black Mustard [4, 18]: 95 | Plant response rating, Black Mustard [4, 19]: 100 | Plant response rating, Black Mustard [4, 21]: 0 | Plant response rating, Black Mustard [4, 22]: 50 | Plant response rating, Black Mustard [4, 23]: 75 | Plant response rating, Black Mustard [4, 24]: 100 | Plant response rating, Dallisgrass [5, 17]: 20 | Plant response rating, Dallisgrass [5, 25]: 20 | Plant response rating, Dallisgrass [5, 19]: 70 | Plant response rating, Dallisgrass [5, 20]: 30 | Plant response rating, Dallisgrass [5, 21]: 0 | Plant response rating, Dallisgrass [5, 22]: 10 | Plant response rating, Dallisgrass [5, 23]: 10 | Plant response rating, Dallisgrass [5, 24]: 90 | Plant response rating, Dayflower, VA [6, 17]: 10 | Plant response rating, Dayflower, VA [6, 25]: 10 | Plant response rating, Dayflower, VA [6, 19]: 20 | Plant response rating, Dayflower, VA [6, 20]: 10 | Plant response rating, Dayflower, VA [6, 21]: 0 | Plant response rating, Dayflower, VA [6, 22]: 0 | Plant response rating, Dayflower, VA [6, 24]: 0 | Plant response rating, Foxtail, Green [7, 17]: 10 | Plant response rating, Foxtail, Green [7, 25]: 20 | Plant response rating, Foxtail, Green [7, 19]: 65 | Plant response rating, Foxtail, Green [7, 20]: 40 | Plant response rating, Foxtail, Green [7, 21]: 0 | Plant response rating, Foxtail, Green [7, 22]: 0 | Plant response rating, Foxtail, Green [7, 23]: 0 | Plant response rating, Foxtail, Green [7, 24]: 0 | Plant response rating, Guineagrass [8, 17]: 20 | Plant response rating, Guineagrass [8, 25]: 30 | Plant response rating, Guineagrass [8, 19]: 50 | Plant response rating, Guineagrass [8, 20]: 30 | Plant response rating, Guineagrass [8, 21]: 0 | Plant response rating, Guineagrass [8, 22]: 0 | Plant response rating, Guineagrass [8, 23]: 0 | Plant response rating, Guineagrass [8, 24]: 75 | Plant response rating, Itchgrass [9, 17]: 0 | Plant response rating, Itchgrass [9, 25]: 20 | Plant response rating, Itchgrass [9, 19]: 80 | Plant response rating, Itchgrass [9, 20]: 40 | Plant response rating, Itchgrass [9, 21]: 0 | Plant response rating, Itchgrass [9, 22]: 0 | Plant response rating, Itchgrass [9, 23]: 0 | Plant response rating, Itchgrass [9, 24]: 0 | Plant response rating, Mallow [10, 17]: 0 | Plant response rating, Mallow [10, 25]: 0 | Plant response rating, Mallow [10, 19]: 20 | Plant response rating, Mallow [10, 20]: 0 | Plant response rating, Mallow [10, 21]: 0 | Plant response rating, Mallow [10, 22]: 0 | Plant response rating, Mallow [10, 23]: 0 | Plant response rating, Mallow [10, 24]: 65 | Plant response rating, Prickly Sida [11, 17]: 50 | Plant response rating, Prickly Sida [11, 25]: 50 | Plant response rating, Prickly Sida [11, 19]: 75 | Plant response rating, Prickly Sida [11, 20]: 65 | Plant response rating, Prickly Sida [11, 21]: 0 | Plant response rating, Prickly Sida [11, 22]: 20 | Plant response rating, Prickly Sida [11, 23]: 20 | Plant response rating, Prickly Sida [11, 24]: 35 | Plant response rating, Quackgrass [12, 17]: 0 | Plant response rating, Quackgrass [12, 25]: 0 | Plant response rating, Quackgrass [12, 19]: 0 | Plant response rating, Quackgrass [12, 20]: 0 | Plant response rating, Quackgrass [12, 21]: 0 | Plant response rating, Quackgrass [12, 22]: 0 | Plant response rating, Quackgrass [12, 24]: 0 | Plant response rating, Ragweed [13, 17]: 60 | Plant response rating, Ragweed [13, 25]: 75 | Plant response rating, Ragweed [13, 19]: 85 | Plant response rating, Ragweed [13, 20]: 80 | Plant response rating, Ragweed [13, 21]: 35 | Plant response rating, Ragweed [13, 22]: 50 | Plant response rating, Ragweed [13, 24]: 95 | Plant response rating, Sandbur [14, 17]: 5 | Plant response rating, Sandbur [14, 25]: 25 | Plant response rating, Sandbur [14, 19]: 60 | Plant response rating, Sandbur [14, 20]: 25 | Plant response rating, Sandbur [14, 21]: 0 | Plant response rating, Sandbur [14, 22]: 0 | Plant response rating, Sandbur [14, 24]: 75 | Plant response rating, Signalgrass [15, 17]: 5 | Plant response rating, Signalgrass [15, 25]: 35 | Plant response rating, Signalgrass [15, 19]: 50 | Plant response rating, Signalgrass [15, 20]: 50 | Plant response rating, Signalgrass [15, 21]: 0 | Plant response rating, Signalgrass [15, 22]: 0 | Plant response rating, Signalgrass [15, 24]: 10 | Plant response rating, Sowthistle [16, 17]: 95 | Plant response rating, Sowthistle [16, 25]: 98 | Plant response rating, Sowthistle [16, 19]: 100 | Plant response rating, Sowthistle [16, 20]: 100 | Plant response rating, Sowthistle [16, 21]: 40 | Plant response rating, Sowthistle [16, 22]: 75 | Plant response rating, Sowthistle [16, 24]: 100
